Test results as given in patent US10450260B2, “NO- and H2S-releasing compounds” (RESEARCH FOUNDATION OF THE CITY UNIVERSITY OF NEW YORK, priority 2011, dated 2019).

Test system: HT-29 human colon cancer cells
Assay: MTT cell growth inhibition, HT-29
Assay type: cell-based
Settings: Homo sapiens; HT-29, 24 h (Table 5); in combinations the IC50 of ASA with fixed concentrations of SNAP and/or ADT-OH; read-out: IC50 at 24 hours for HT-29 cell growth inhibition
Procedure: HT-29, SW-480 and HCT-15 human colon adenocarcinoma, MIA PaCa-2 and BxPC-3 human pancreatic cancer, LNCAP human prostate cancer, A549 human lung cancer, MCF-7 (estrogen receptor positive), MDA-MB 231 and SK-BR-3 (estrogen receptor negative) human breast cancer, and Jurkats human leukemia cell lines were obtained from American Type Tissue Collection (Manassas, Va.). All cells lines were grown as monolayers except for the Jurkats which were grown in suspension. The pancreatic and breast cancer cells were grown in Dulbecco's modified Eagle's medium, the prostate, Jurkat, SW-480 and HCT-15 colon cells were grown in RPMI 1640 medium, the lung cells were grown in F-12 and the colon HT-29 cells were grown in McCoy 5A. All media were supplemented with 10% fetal calf serum (Invitrogen, Carlsbad, Calif.) penicillin (50 U/ml), and streptomycin (50 μg/ml) (Invitrogen, Carlsbad, Calif.). Cells were seeded on culture dishes at a density of 25×10^3 cells/cm^2 and incubated at 37° C. in 5% CO2 and 90% relative humidity. Single cell suspensions were obtained by trypsinization (0.05% trypsin/EDTA), and cells were counted using a hemocytometer. Viability was determined by the trypan blue dye exclusion method.
Cell growth inhibitory effect of NOSH compounds were measured using a colorimetric MTT assay kit (Roche, Indianapolis, Ind.). Cancer cells were plated in 96-well plates at a density of 50,000 cells/well. The cells were incubated for 24 h with different concentrations of NOSH compounds. After the indicated time, 10 μl of MTT dye (3-[4,5-dimethylthiazol-2-yl]-2,5-diphenyl tetrazolium bromide, 5 mg/ml in phosphate buffered saline), was added to each well, and the plates were incubated for 2 hours at 37° C. Then, the media was aspirated, and add 100 μl of the solubilization solution (10% SDS in 0.01 M HCl) was added to each well to solubilize the formant crystals. The absorbance of the plates was measured on an ELISA reader at a wavelength of 570 nm. Each sample was performed in triplicate, and the entire experiment was repeated three times.
HT-29 human colon cancer cells were obtained from American Type Tissue Collection (Manassas, Va.) and grown as monolayer in McCoy 5A media that was supplemented with 10% fetal calf serum (Invitrogen, Carlsbad, Ca.), penicillin (50 U/ml), and streptomycin (50 μg/ml) (Invitrogen, Carlsbad, Calif.).
Growth inhibition was measured using a colorimetric MTT assay kit (Roche, Indianapolis, Ind.). Proliferation (PCNA) was assessed using an ELISA kit from Calbiochem, (La Jolla, Calif.). Cell cycle phase distributions and apoptosis of control and treated cells were determined as previously described. All methods are described in Chattopadhyay et al., Biochemical Pharmacology, 2012, 83(6), 715-722.
HT-29, SW-480 and HCT-15 human colon adenocarcinoma, MIA PaCa-2 and BxPC-3 human pancreatic cancer, LNCAP human prostate cancer, A549 and H383 human lung cancer, MCF-7, MDA-MB 231 and SK-BR-3 human breast cancer and Jurkat T cell human leukemia cell lines were obtained from American Type Tissue Collection (Manassas, Va.) All cells lines were grown as monolayers except for the Jurkat T cells which were grown as suspension culture. The pancreatic and breast cancer cells were grown in Dulbecco's modified Eagle's medium, the prostate, Jurkat, SW-480 and HCT-15 colon cells were grown in RPMI 1640 medium, the lung cells were grown in F-12 and the colon HT-29 cells were grown in McCoy 5A. All media were supplemented with 10% fetal calf serum (Invitrogen, Carlsbad, Calif.) penicillin (50 U/ml), and streptomycin (50 μg/ml) (Invitrogen, Carlsbad, Calif.). Cells were seeded on culture dishes at a density of 25×10^3 cells/cm^2 and incubated at 37° C. in 5% CO2 and 90% relative humidity. Single cell suspensions were obtained by trypsinization (0.05% trypsin/EDTA), and cells were counted using a hemacytometer. The final DMSO concentration was adjusted in all media to 1%. Viability was determined by the trypan blue dye exclusion method. […]

| SMILES | IC50 [µM] |
| --- | --- |
| Oc1ccc(-c2cc(=S)ss2)cc1 [ADT-OH, 5-(4-hydroxyphenyl)-3H-1,2-dithiole-3-thione, reference compound] | 26 ± 3 |
| CC(=O)N[C@H](C(=O)O)C(C)(C)SN=O [SNAP, S-nitroso-N-acetyl-penicillamine, reference compound] | 530 ± 45 |

Same assay, conditions: Homo sapiens; HT-29 colon cancer cells, 24 hours (Table 3); read-out: IC50 at 24 hours for cell growth inhibition

| SMILES | IC50 [µM] |
| --- | --- |
| CC(=O)Oc1ccccc1C(=O)Oc1ccc(-c2cc(=S)ss2)cc1 [HS-ASA, 4-(5-thioxo-5H-1,2-dithiol-3-yl)-phenyl 2-acetoxybenzoate, reference compound] | 4 ± 0.5 |
| CC(=O)Oc1ccccc1C(=O)OCCCOO[N+](=O)[O-] [aliphatic-NO-ASA, 3-(nitroperoxy)propyl 2-acetoxybenzoate, reference compound] | 750 ± 35 |
| CC(=O)Oc1ccccc1C(=O)Oc1cccc(CO[N+](=O)[O-])c1 [m-NO-ASA, 2-(acetyloxy)benzoic acid 3-(nitrooxymethyl)phenyl ester, reference compound] | 185 ± 15 |
| CC(=O)Oc1ccccc1C(=O)Oc1ccccc1CO[N+](=O)[O-] [o-NO-ASA, 2-(acetyloxy)benzoic acid 2-(nitrooxymethyl)phenyl ester, reference compound] | 8 ± 3 |
| CC(=O)Oc1ccccc1C(=O)Oc1ccc(CO[N+](=O)[O-])cc1 [p-NO-ASA, 2-(acetyloxy)benzoic acid 4-(nitrooxymethyl)phenyl ester, reference compound] | 10 ± 2 |
